Data: US6797726B1, “N-alkoxyalkyl-N,N-dialkylamine derivatives or salts thereof, and remedies for nerve degeneration diseases containing the same” (Toyama Chemical Co., Ltd., priority 1999, dated 2004)
Counter-ions that a name gives are not always drawn.

Tested on: not given
Assay: not given
Settings: not given
CCN(CC)CCOCCc1cccc2sccc12.O=C(O)C(=O)O showed a melting point of 79 to 82 °C. Compound CCN(CC)CCCCCc1ccc2sccc2c1.O=C(O)C(=O)O has a melting point of 58 to 60 °C. Compound CN(C)CCOCCc1cccc2sccc12.Cl has a melting point of 165 to 167 °C. In the case of CN(C)CCN(C)CCOCCc1ccc2sccc2c1.Cl.Cl, the melting point is reported as 228 to 230 °C. CCN(CC)CCOCCc1ccc2ccccc2c1.O=C(O)C(=O)O gave a melting point of 67 to 72 °C. In the case of CN(CCO)CCOCCc1cc2ccsc2cc1F.O=C(O)C(=O)O, the melting point is reported as 96 to 99 °C. Cc1cc2cc(CCOCCN(C)CCO)ccc2s1.O=C(O)C(=O)O gave a melting point of 73 to 75 °C. Compound CCN(CCO)CCOCCc1ccc2sccc2c1.O=C(O)C(=O)O has a melting point of 53 to 56 °C. O=C(O)C(=O)O.OCCN(CCOCCc1ccc2sccc2c1)Cc1ccccc1 gave a melting point of 104 to 105.5 °C. CN(C)CCOCCc1ccc2occc2c1.O=C(O)C(=O)O showed a melting point of 101 to 103 °C. In the case of CN(CCO)CCOCCc1ccc2sc(F)cc2c1.O=C(O)C(=O)O, the melting point is reported as 77 to 80 °C. CN(CCO)CCOCCc1c(F)ccc2ccsc12.Cl gave a melting point of 69 to 72 °C. Work on CN(CCO)CCOCCc1cccc2ccsc12.Cl yielded a melting point of 74 to 76 °C. CCN(CC)CCOCCc1ccc2sc(C)cc2c1.O=C(O)C(=O)O gave a melting point of 96 to 98 °C. With CC(CO)N(C)CCOCCc1ccc2sccc2c1.O=C(O)C(=O)O (stereo not shown) the melting point was 97 to 99 °C. For CN(CCCO)CCOCCc1ccc2sccc2c1.O=C(O)C(=O)O, the melting point was 93 to 95 °C. In the case of CCN(CC)CCOCCc1ccc2ncccc2c1.O=C(O)C(=O)O, the melting point is reported as 90 to 92 °C. With C#CCN(CCOCCc1ccc2sccc2c1)Cc1ccccc1.O=C(O)C(=O)O the melting point was 107 to 108 °C. COc1ccc(CN(C)CCOCCc2ccc3sccc3c2)cc1.O=C(O)C(=O)O showed a melting point of 78.5 to 81 °C. For CN(CCOCCc1ccc2sccc2c1)Cc1ccc(F)cc1.O=C(O)C(=O)O, the melting point was 149 to 150.5 °C. Work on CN(CCOCCc1ccc2sccc2c1)Cc1ccc([N+](=O)[O-])cc1.O=C(O)C(=O)O yielded a melting point of 112 to 114 °C. Compound C#CCN(CC)CCOCCc1ccc2sccc2c1.Cl has a melting point of 115 to 123 °C. With CCN(CC)CCOCCc1ccc2occc(=O)c2c1.Cl the melting point was 173 to 176 °C. In the case of CN(CCOCCc1ccc2sccc2c1)CCOC(=O)C(C)(C)C.Cl, the melting point is reported as 118 to 119 °C. CN(C)CCOCCc1ccc2ccccc2c1.Cl gave a melting point of 105 to 107 °C. Work on CCOC(=O)OCCN(C)CCOCCc1ccc2sccc2c1.Cl yielded a melting point of 73.5 to 76 °C. For CN(CCOCCc1ccc2sccc2c1)CCOC(=O)c1ccccc1.Cl, the melting point was 97 to 98 °C. Work on CC(C)N(CCOCCc1ccc2sccc2c1)C(C)C.Cl yielded a melting point of 78 to 79 °C. For CN(C)CCOCCc1ccc2sc(-c3ccccc3)cc2c1.Cl, the melting point was 170 to 172 °C. Compound CN(C)CCOCCc1ccc2c(c1)OCO2.O=C(O)C(=O)O has a melting point of 109 to 112 °C. With CN(C)CCOCCc1cccc2ccsc12.Cl the melting point was 130 to 132 °C. With CCN(CC)CCOCCc1ccc2sc(C(=O)O)cc2c1.Cl the melting point was 148 to 150 °C. Work on CCN(CC)CCOCCc1cc2ccsc2cc1OC.O=C(O)C(=O)O yielded a melting point of 80 to 83 °C. CN(C)CCOCCc1ccc2sccc2c1F.O=C(O)C(=O)O showed a melting point of 118 to 121 °C. Compound CN(C)CCOCCc1cccc2ccccc12.Cl has a melting point of 183 to 184 °C. COc1ccc2cc(CCOCCN(C)C)ccc2c1.Cl showed a melting point of 125 to 128 °C. In the case of CN(C)CCOCCc1ccc2sccc2c1Cl.Cl, the melting point is reported as 92 to 95 °C. Work on CN(C)CCOCCc1ccc(F)c2ccsc12.Cl yielded a melting point of 67 to 69 °C. CN(C)CCOCCc1cc2ccsc2cc1Cl.Cl showed a melting point of 105 to 108 °C. Compound CCN(CC)CCOCCc1c(F)ccc2ccsc12.Cl has a melting point of 71 to 73.5 °C. Compound CCN(CC)CCOCCc1c(F)cc2ccsc2c1F.Cl has a melting point of 98 to 100 °C. CCN(CC)CCOCCc1cc2occc2cc1OC.Cl showed a melting point of 90 to 92 °C. In the case of CCC(Cc1ccc2sccc2c1)OCCN(CC)CC.Cl (stereo not shown), the melting point is reported as 84.5 to 87 °C. Compound CCCN(CCC)CCOCCc1ccc2sccc2c1.O=C(O)C(=O)O has a melting point of 93 to 98 °C. In the case of CC(COCCc1ccc2sccc2c1)N(C)CCO.O=C(O)C(=O)O (stereo not shown), the melting point is reported as 72 to 74 °C. With CN(CCO)CCCCCOCCc1ccc2sccc2c1.O=C(O)C(=O)O the melting point was 78.5 to 80.5 °C. In the case of CCN(CC)CCCOCCc1ccc2sccc2c1.O=C(O)C(=O)O, the melting point is reported as 87.5 to 89 °C. For CCN(CC)CCCCCOCCc1ccc2sccc2c1.Cl, the melting point was 138.5 to 140 °C. With CCN(CC)CCOCCc1cccc2ccsc12.O=C(O)C(=O)O the melting point was 75 to 76 °C. CN(CCOCCc1cc2ccsc2cc1F)Cc1ccccc1.O=C(O)C(=O)O gave a melting point of 96 to 98 °C. For CN(C)CCOCCc1cc2ccsc2cc1F.O=C(O)C(=O)O, the melting point was 120 to 126 °C. With CCN(CC)CCOCCc1ccc2c(c1)OCO2 [Example 25, N-{2-[2-(1,3-benzodioxol-5-yl)ethoxy]ethyl}-N,N-diethylamine] the melting point was 83 to 84 °C. In the case of CCN(CC)CCOCCc1ccc2c(c1)CCC2.Cl [Example 105, N-{2-[2-(2,3-Dihydro-1H-inden-5-yl)ethoxy]ethyl}-N,N-diethylamine hydrochloride], the melting point is reported as 104 to 105 °C.

Tested on: ddY male mice
Assay: Anti-hypoxic activity
Format: in vivo
Settings: 100 mg/kg orally, 30 minutes after administration, gas 4% oxygen / 96% nitrogen at 5 L/minute
Experimental: A test compound (100 mg/kg) dissolved in distilled water is orally administered to ddY male mice of 5-6 weeks age (6-10 heads per group). Thirty minutes after the administration, each mouse was introduced into a glass vessel, and a gas mixture consisting of 4% of oxygen and 96% of nitrogen was passed through the glass vessel at a rate of 5 L/minute. The period of the time from the beginning of sending the gas to the death of the animal was measured.
To the control group, only distilled water was orally given. Anti-hypoxic activity of test compound was calculated according to the following equation:
(Survival time of mouse in administered group)÷(Survival time of mouse in control group)×100(%)
With C#CCN(C)CCOCCc1ccc2sccc2c1.Cl [Example 70, N-[2-(2-benzo[b]thiophen-5-ylethoxy)ethyl]-N-methyl-N-(2-pripynyl)amine hydrochloride] the “Anti-hypoxic activity: (survival time of mouse in administered group)÷(survival time of mouse in control group)×100” value was 213%.

Same assay, conditions: Mus musculus, po, 0.5 h, 100 mg/kg orally, 30 minutes after administration, gas 4% oxygen / 96% nitrogen at 5 L/minute, read-out: Anti-hypoxic activity: (survival time of mouse in administered group)÷(survival time of mouse in control group)×100
Compound CCN(CC)CCOCCc1ccc2occc2c1 [Example 13, N-[2-(2-Benzo[b]furan-5-ylethoxy)ethyl]-N,N-diethylamine oxalate] has a response vs control in vivo at 100 mg/kg of 160%. CN(CCOCCc1ccc2sccc2c1)Cc1ccccc1.O=C(O)C(=O)O [Example 20, N-[2-(2-benzo[b]thiophen-5-ylethoxy)ethyl]-N-benzyl-N-methylamine oxalate] gave a response vs control in vivo at 100 mg/kg of 155%. CCN(CC)CCOCCc1cc2ccsc2cc1F [Example 31, N,N-diethyl-N-{2-[2-(6-fluorobenzo[b]thiophen-5-yl)ethoxy]ethyl}amine oxalate] gave a response vs control in vivo at 100 mg/kg of 248%. With CCN(CC)CCOCCc1cccc2ccccc12 [Example 49, N,N-diethyl-N-{2-[2-(1-naphthyl)ethoxy]ethyl}-amine oxalate] the response vs control in vivo at 100 mg/kg was 173%. COc1cc2sccc2cc1CCOCCN(C)C [Example 53, N,N-Dimethyl-N-{2-[2-(6-methoxybenzo[b]thiophen-5-yl)ethoxy]ethyl}-amine hydrochloride] gave a response vs control in vivo at 100 mg/kg of 200%. CN(CCO)CCCOCCc1ccc2sccc2c1.O=C(O)C(=O)O [Example 76, 2-{[3-(2-benzo[b]thiophen-5-ylethoxy)propyl]-(methyl)amino}-1-ethanol oxalate] showed a response vs control in vivo at 100 mg/kg of 194%. CCN(CC)CCOCCc1ccc2ccsc2c1 [Example 101, N-[2-(2-Benzo[b]thiophen-6-ylethoxy)ethyl]-N,N-diethylamine oxalate] gave a response vs control in vivo at 100 mg/kg of 187%. In the case of CCN(C)CCOCCc1ccc2sccc2c1 [Example 102, N-[2-(2-Benzo[b]thiophen-5-ylethoxy)ethyl]-N-ethyl-N-methylamine oxalate], the response vs control in vivo at 100 mg/kg is reported as 210%. Compound CC(O)CN(C)CCOCCc1ccc2sccc2c1 (stereo not shown) [Example 144, 1-{[2-(2-Benzo[b]thiophen-5-ylethoxy)ethyl]-(methyl)amino}-2-propanol oxalate] has a response vs control in vivo at 100 mg/kg of 250%. With CN(CCOCCc1ccc2sccc2c1)C1CC1 [Example 158, N-[2-(2-benzo[b]thiophen-5-ylethoxy)ethyl]-N-cyclopropyl-N-methylamine hydrochloride] the response vs control in vivo at 100 mg/kg was 179%.

Tested on: cultured nerve cells death induced by HNE
Assay: Activity of inhibiting the HNE-induced nerve cell death (MTT assay)
Format: cell-based, Wistar rat
Settings: 0.1 μM; HNE 25 μmol/L; cultured rat embryo cerebral cortex nerve cells; 24 hours
From the text: The protecting effect against the death of cultured nerve cells induced by HNE was examined by a modification of the method described in the Journal of Neuroscience, Vol. 17, Page 5089 (1997).
Cerebral cortex excised from the brain of an embryo of Wistar rat (embryonal age 17-19 days) was cut into small pieces and then treated with trypsin to dissociate the nerve cells. The cells were spread onto a 48-well tissue-culture plate at a rate of 5×10^5 cells per well, and cultured under a condition of 5% carbon dioxide, 37° C., in a Dulbecco modified Eagle medium to which 10% fetal calf serum and 3.6 mg/mL glucose were added.
In order to inhibit the proliferation of glia cells, cytosine arabinoside was added so as to give a final concentration of 10 μmol/L, from the day one after starting the culture. When the culture had been continued for 2 days, the medium was changed to a Dulbecco modified Eagle medium to which 10% fetal calf serum and 3.6 mg/mL glucose were added. When the culture had been continued for 7-8 days, a test agent was added, after which HNE was immediately added so as to give a final concentration of 25 μmol/L.
The inhibitory activity of an agent on the cultured nerve cell death was […] by using the inhibitory activity on the depression of MTT reducing ability as an index. That is, 24 hours after addition of a test agent, MTT assay [Journal of Immunological Methods, Vol. 65, Page 55 (1983)] developed by Mossmann was carried out, based on which inhibitory rate (%) of the agent on the decrease of MTT assay induced by HNE was calculated.
Inhibitory rate=[MTT assay value of (HNE+agent)−added group)−(MTT assay value of HNE−added group)]÷(MTT assay value of no addition group−MTT assay value of HNE−added group)]×100
With CN(CCOCCc1ccc2sccc2c1)Cc1ccccc1.O=C(O)C(=O)O [Example 20, N-[2-(2-benzo[b]thiophen-5-ylethoxy)ethyl]-N-benzyl-N-methylamine oxalate] the “Inhibitory rate on the decrease of MTT assay induced by HNE” value (“Inhibitory rate on the decrease” for short) was 69%. For CN(CCO)CCCOCCc1ccc2sccc2c1.O=C(O)C(=O)O [Example 76, 2-{[3-(2-benzo[b]thiophen-5-ylethoxy)propyl]-(methyl)amino}-1-ethanol oxalate], the “Inhibitory rate on the decrease” value was 49%. With CCN(CC)CCOCCc1ccc2c(c1)CCC2.Cl [Example 105, N-{2-[2-(2,3-Dihydro-1H-inden-5-yl)ethoxy]ethyl}-N,N-diethylamine hydrochloride] the “Inhibitory rate on the decrease” value was 31%.
